Patent US8415393B2, “Anti-bacterial drug targeting of genome maintenance interfaces” (Wisconsin Alumni Research Foundation, priority 2007, dated 2013)
Converted amounts (≈) assume the structure as drawn. Like-named read-outs stand apart in the source and are kept apart here. Where a SMILES comes first, the peptide text is derived from it. Where no end group is shown, it is not given here.

How the values were obtained:
[1] = molecular target: T1, Exonuclease I/SSB-Ct complex (Escherichia coli, UniProt P04995); test: Fluorescence polarization competition: inhibition of fluorescein-SSB C-terminal peptide binding to Exonuclease I (HTS and Ki determination); conditions: FIG. 7, unlabeled peptide competition
T1 sequence (P04995 whole entry, looked up): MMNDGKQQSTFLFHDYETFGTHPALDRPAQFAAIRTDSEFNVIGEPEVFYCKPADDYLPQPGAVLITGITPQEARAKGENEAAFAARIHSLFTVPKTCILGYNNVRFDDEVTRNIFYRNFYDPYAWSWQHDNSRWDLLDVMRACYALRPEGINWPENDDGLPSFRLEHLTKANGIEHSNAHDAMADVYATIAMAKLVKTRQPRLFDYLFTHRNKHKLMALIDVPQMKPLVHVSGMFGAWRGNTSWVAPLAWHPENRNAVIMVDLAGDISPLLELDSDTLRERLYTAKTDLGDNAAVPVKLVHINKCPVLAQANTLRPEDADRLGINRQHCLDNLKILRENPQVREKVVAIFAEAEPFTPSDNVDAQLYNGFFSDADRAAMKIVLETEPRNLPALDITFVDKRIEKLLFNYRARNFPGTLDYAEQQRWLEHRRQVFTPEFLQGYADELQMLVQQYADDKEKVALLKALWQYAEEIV
Protocol: (§1) Peptide binding assays were performed in solution, using the peptides from above, and Exonuclease I, in the absence or presence of various compounds. Different amounts of Exonuclease I (ExoI) were used in the peptide binding assays. […] Fluorescence polarization (FP) was measured at 25° C. in triplicate; the average FP value was plotted with standard deviation of the mean shown as error.
(§2) Concentrated Exonuclease I was dialyzed overnight into 2 liters dilution buffer (DB) (20 mM Tris pH 8.0 HCl, 100 mM NaCl, 1 mM MgCl2, and 1 mM Beta-Mercaptoethanol). […] After sitting at room temperature for 5 min, a liquid handling system was used to aliquot this solution into 384 well plates providing 30 microliters/well. One microliter of 1 mM compound was then added. The screened compounds were obtained from the ChemBridge DIVERSet library (ChemBridge Corporation, San Diego, Calif.), from the Maybridge HitFinder library (Thermo Fisher Scientific, Waltham, Mass.), from the ChemDiv library (Chemical Diversity Labs, San Diego, Calif.), or from the Known Bioactive Library—KBA01.
(§3) The FP (fluorescence polarization) values for each well were read using a (plate reader) 5 minutes after compound addition.
(§4) Increasing amounts of compound were titrated into peptide protein mixture until FP values were lowered to values given by only fluorescently labeled peptide alone. Ki values were determined using the Ki calculator for fluorescence-based competitive binding assays of Prof. Shaomeng Wang, University of Michigan (Nikolovska-Coleska et al., 2004, Anal. Biochem. 332: 261-273).

ExoI = molecular target: T2, ExoI (Escherichia coli, UniProt P04995); assay type: binding; conditions: FIG. 26A
T2 construct: made in house

B. subtilis = test: Growth on solid media (MIC; agar plates with compound), B. subtilis; assay type: cell-based, Bacillus subtilis; conditions: for MIC / growth on agar plates: Bacillus subtilis; for MIC: solid media, B. subtilis; for growth on agar plates: 100 μM compound in agar
Protocol: (§5) A number of the tested candidate compounds had profound inhibitory effects on bacterial growth. In addition, it was discovered that the identified drug compounds can slow the growth of a number of other Gram-positive bacterial species. For example, the growth of Bacillus subtilis and Enterococcus faecalis was inhibited when these bacteria were grown on agar plates containing 100 μM of either compound 9 or compound 10.

[2] = system: HT-29 (human colorectal adenocarcinoma) cells; test: Mammalian cell toxicity, CellTiter-Glo cell viability assay; assay type: cell-based
Protocol: The toxicity of the identified antimicrobial candidate compounds was tested using human colorectal adenocarcinoma cells in vitro. […] The mammalian cells were tested using a CellTiter-Glo cell viability assay (Promega, Madison, Wis.).

[3] = system: E. coli 4213 (imp4213, compromised cell wall); test: microbe, parasite or virus in culture; assay type: cell-based; conditions: Escherichia coli
Protocol: The compromised cell wall allows the chemicals to pass through it more readily.
(§6) 100 μL of LB containing E. coli 1655, E. coli 4213, or S. aureus at A ˜0.05 OD 600 was aliquoted in 96 well plates. One μL of compound in DMSO was added to final concentrations given. Plates were incubated at 37° C. with shaking at 250 RPM. Rate of growth was calculated by determining the average change in OD/hour that took place between hours 3 and 7 (log growth phase). The graphs shown herein are plots of this bacterial growth rate (change in OD/h) against inhibitor concentration in μM.

[4] = molecular target: Exonuclease I/SSB-Ct complex (Escherichia coli, UniProt P04995); test: Fluorescence polarization competition: inhibition of fluorescein-SSB C-terminal peptide binding to Exonuclease I (HTS and Ki determination)
Protocol: as §1, §2, §3, §4

E. coli (imp4213) = test: MIC on solid media, E. coli; assay type: cell-based; conditions: Escherichia coli, read-out: MIC (E. coli)
[5] = system: Staphylococcus aureus 12598; test: Bacterial growth assay in LB liquid media, S. aureus; assay type: cell-based; conditions: Staphylococcus aureus, 12598
Protocol: as §6

red blood cells = test: In vitro hemolysis; assay type: cell-based; conditions: for % hemolysis at given concentration: 1 hour; for Hemolysis: Table 3, minimum concentration necessary to lyse red blood cells
Protocol: The identified small molecules were incubated with red blood cells to see what percentage of cells would lyse after 1 hour. Estimated hemolysis data are due to problem with reading absorbance, when the compound absorbs at the same wavelength as heme or if the compound precipitates. In such instances it is difficult to quantitate the absorbance readings; however, visual determination of how many cells have lysed can then be performed, which provides an estimate of cell lysis.

ExoI nuclease activity = conditions: radiolabeled ssDNA substrate
PriA = PriA (Escherichia coli, UniProt P17888); conditions: read-out: Kd, app; SSB-Ct peptide binding by PriA; cited from earlier work
RecQ = RecQ (Escherichia coli, UniProt P15043); conditions: read-out: Kd, app; SSB-Ct peptide binding by RecQ; cited from earlier work
[6] = molecular target: Topoisomerase III (TopoIII)/C-terminal tail of E. coli SSB (Escherichia coli, UniProt P14294); test: Topoisomerase III peptide binding (fluorescence anisotropy); conditions: 100 μM final concentration, 1% DMSO
Protocol: TopoIII was titrated into 10 nM fluorescent peptide, as described above for the ExoI binding assays. The buffer conditions for this binding assay were: 300 mM NaCl, 20 mM Tris pH 8.0, 10% Glycerol, 1 mM BME (Beta-Mercaptoethanol), and 1% DMSO. Concentrations of TopoIII used are given on the graph in FIG. 24. Changes in anisotropy upon binding were read using PanVera Beacon 2000 FP.
Either unlabeled peptide or various compounds were then added to a final concentration of 100 μM. These compounds and unlabeled peptide were dissolved in DMSO and their addition brought the final concentration of DMSO to 1%.

[7] = molecular target: ExoI Arg316 Ala variant (Escherichia coli) (UniProt P04995); test: cell-based or functional assay
[8] = molecular target: Escherichia coli Exonuclease I (Escherichia coli) (UniProt P04995); test: cell-based or functional assay
Enterococcus faecalis = test: Growth on agar plates containing compound, Enterococcus faecalis; assay type: cell-based; conditions: 100 μM compound in agar
Protocol: as §5

Deinococcus radiodurans = test: Growth on agar plates containing compound, Deinococcus radiodurans; assay type: cell-based; conditions: tested in a similar manner (100 μM in agar)
Protocol: as §5

E. coli Exonuclease I = molecular target: T3, E. coli Exonuclease I (Escherichia coli, UniProt P04995 1-475); test: fluorescence polarization competition: unlabeled peptide titrated into 1 uM ExoI with 10 nM fluorescein-labeled SSB C-terminal peptide
T3 construct: also called ExoI; Exol
T3 sequence: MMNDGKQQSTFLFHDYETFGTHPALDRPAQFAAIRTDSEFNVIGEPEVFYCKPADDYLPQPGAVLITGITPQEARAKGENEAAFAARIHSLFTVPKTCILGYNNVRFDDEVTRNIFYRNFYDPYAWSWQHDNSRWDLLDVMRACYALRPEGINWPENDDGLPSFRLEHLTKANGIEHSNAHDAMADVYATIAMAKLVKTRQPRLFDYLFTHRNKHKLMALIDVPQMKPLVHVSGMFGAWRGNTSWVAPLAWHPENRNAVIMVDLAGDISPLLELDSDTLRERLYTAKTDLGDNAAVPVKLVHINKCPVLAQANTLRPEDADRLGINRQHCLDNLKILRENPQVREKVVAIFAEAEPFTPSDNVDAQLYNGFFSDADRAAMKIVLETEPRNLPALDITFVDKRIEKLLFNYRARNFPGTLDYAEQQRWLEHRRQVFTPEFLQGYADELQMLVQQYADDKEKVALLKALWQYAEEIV

[9] = HT-29, Table 3, unit inferred, read-out: IC(50) Human cell line
[10] = HT-29 cells, CellTiter-Glo, read-out: IC50
[11] = read-out: IC50 μM inhibitor, inhibition of E. coli growth
[12] = read-out: IC(50) E. coli imp4213
[13] = Table 3, reduce growth 50% in liquid media, unit not given (Table 5 gives μM), read-out: IC(50) S. aureus
[14] = Table 5, read-out: IC50 μM inhibitor, inhibition of S. aureus growth
[15] = compound listing, bacterial growth in LB, read-out: IC50 Staphylococcus aureus

Chain of Topoisomerase III (TopoIII)/C-terminal tail of E. coli SSB (P14294 whole entry): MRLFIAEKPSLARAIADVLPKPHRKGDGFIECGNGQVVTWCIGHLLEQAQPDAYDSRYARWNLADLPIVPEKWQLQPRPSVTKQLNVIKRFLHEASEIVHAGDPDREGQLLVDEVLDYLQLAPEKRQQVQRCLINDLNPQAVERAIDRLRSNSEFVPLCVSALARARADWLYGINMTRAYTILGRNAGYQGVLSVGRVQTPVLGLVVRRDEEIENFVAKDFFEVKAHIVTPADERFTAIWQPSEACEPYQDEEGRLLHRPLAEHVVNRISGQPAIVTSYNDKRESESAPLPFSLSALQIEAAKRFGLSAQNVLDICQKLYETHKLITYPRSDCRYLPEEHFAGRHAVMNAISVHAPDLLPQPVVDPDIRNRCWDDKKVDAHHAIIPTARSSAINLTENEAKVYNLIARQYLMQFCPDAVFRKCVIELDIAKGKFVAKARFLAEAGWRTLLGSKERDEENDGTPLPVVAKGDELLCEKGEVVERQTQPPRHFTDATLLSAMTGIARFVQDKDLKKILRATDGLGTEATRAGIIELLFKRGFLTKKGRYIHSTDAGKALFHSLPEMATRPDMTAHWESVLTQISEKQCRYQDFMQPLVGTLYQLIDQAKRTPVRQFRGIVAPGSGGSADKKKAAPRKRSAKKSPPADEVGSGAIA
Chain of PriA (P17888 whole entry): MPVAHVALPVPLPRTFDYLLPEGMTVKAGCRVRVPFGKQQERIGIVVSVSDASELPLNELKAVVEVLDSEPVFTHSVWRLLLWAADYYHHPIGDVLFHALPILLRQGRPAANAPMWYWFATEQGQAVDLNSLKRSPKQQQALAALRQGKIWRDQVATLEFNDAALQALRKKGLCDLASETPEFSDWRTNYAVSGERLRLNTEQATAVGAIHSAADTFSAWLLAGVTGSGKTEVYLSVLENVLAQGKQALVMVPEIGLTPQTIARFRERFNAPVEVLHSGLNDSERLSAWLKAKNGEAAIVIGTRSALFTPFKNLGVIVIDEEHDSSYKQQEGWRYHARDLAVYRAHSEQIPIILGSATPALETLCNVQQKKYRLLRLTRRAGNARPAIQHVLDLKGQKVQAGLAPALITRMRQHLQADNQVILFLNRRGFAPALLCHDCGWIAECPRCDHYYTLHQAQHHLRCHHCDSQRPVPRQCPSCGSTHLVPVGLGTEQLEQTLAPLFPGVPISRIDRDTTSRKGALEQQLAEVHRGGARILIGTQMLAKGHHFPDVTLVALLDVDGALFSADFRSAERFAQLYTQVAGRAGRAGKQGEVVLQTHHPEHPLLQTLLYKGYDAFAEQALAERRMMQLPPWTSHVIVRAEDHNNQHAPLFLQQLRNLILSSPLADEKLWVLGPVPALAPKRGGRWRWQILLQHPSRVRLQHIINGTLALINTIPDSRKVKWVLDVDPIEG
Chain of RecQ (P15043 whole entry): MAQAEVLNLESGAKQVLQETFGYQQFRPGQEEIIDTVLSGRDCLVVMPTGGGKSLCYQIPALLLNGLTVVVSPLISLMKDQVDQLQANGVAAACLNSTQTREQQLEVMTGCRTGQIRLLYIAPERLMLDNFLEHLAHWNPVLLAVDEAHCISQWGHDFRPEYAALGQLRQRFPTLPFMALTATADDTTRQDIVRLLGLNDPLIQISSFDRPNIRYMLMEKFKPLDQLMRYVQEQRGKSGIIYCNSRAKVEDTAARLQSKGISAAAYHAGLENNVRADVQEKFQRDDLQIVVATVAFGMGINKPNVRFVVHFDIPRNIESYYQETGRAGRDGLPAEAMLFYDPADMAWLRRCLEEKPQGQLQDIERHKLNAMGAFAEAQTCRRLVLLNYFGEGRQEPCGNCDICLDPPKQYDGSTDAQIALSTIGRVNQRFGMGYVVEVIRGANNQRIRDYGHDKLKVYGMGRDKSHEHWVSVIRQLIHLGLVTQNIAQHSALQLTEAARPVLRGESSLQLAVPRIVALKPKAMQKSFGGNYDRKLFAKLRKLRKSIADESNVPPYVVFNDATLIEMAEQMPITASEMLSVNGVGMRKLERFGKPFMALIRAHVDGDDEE

Row | Molecule | MIC (B. subtilis) [µg/mL] | IC50 [2, 9] [µM] | IC50 [2, 10] [µM] | IC50 [3, 11] [µM] | IC50 ([3]; read-out: IC50 E. coli 4213) [µM] | IC50 [3, 12] [µM] | Ki [4] [µM] | Ki ([4]; Ki estimates, Table 2) [µM] | Ki ([4]; Ki, compound listing) [µM] | MIC (E. coli (imp4213)) [µg/mL] | IC50 [5, 13] [µM] | IC50 [5, 14] [µM] | IC50 [5, 15] [µM] | Hemolysis (red blood cells) [µM] | other results
1 | DDDIPF: unlabeled SSB C-terminal peptide with three residues (MDF) missing from the N-terminus [reference compound] | – | – | – | – | – | – | – | – | – | – | – | – | – | – | amount needed to titrate away the fluorescent peptide, relative to full-length peptide [1]: ten-fold more
2 | WDFMDDPFID [F-mixed] | – | – | – | – | – | – | – | – | – | – | – | – | – | – | ExoI binding to control peptides relative to F-SSB-Ct (ExoI): minimal
3 | CC(/C=C1\SC(=S)N(C(C(=O)O)c2ccccc2)C1=O)=C\c1ccccc1 (stereo not shown) [Compound 8, [5-(2-methyl-3-phenyl-2-propen-1-ylidene)-4-oxo-2-thioxo-1,3-thiazolidin-3-yl](phenyl)acetic acid] | 6.3 (≈ 15.9 µM) | > 100 | > 100 | 11 | 11 | 11 | 4 | 4 | ~4 | 4 (≈ 10.1 µM) | 29 | 30 | 29 | ~200 | Bactericidal for B. subtilis (B. subtilis; Table 3 info column): Compound 8; also called MPTA. Came from original Maybridge HTS collection. Bactericidal for B. subtilis; % hemolysis at given concentration (red blood cells; 200 μM): estimated 0% 200; % hemolysis at given concentration (red blood cells; 400 μM): estimated 90% 400 uM
4 | CC[C@H](C)[C@H](NC(=O)[C@H](CC(=O)O)NC(=O)[C@H](CC(=O)O)NC(=O)[C@H](CC(=O)O)NC(=O)[C@H](Cc1ccccc1)NC(=O)[C@H](CC(=O)O)NC(=O)[C@H](CCSC)NC(=O)[C@@H](N)Cc1c[nH]c2ccccc12)C(=O)N1CCC[C@H]1C(=O)N[C@@H](Cc1ccccc1)C(=O)O [WT peptide] (H-WMDFDDDIPF-OH; N-terminus assumed) | – | – | – | – | – | – | – | – | – | – | – | – | – | – | SSB stimulation of ExoI nuclease activity (ExoI nuclease activity): no apparent effect; Kd (PriA): 2 µM; Kd (RecQ): 6 µM; inhibition of fluorescent peptide binding to TopoIII (anisotropy) [6]: did not bring the anisotropy values down to the baseline
5 | E. coli single-stranded DNA-binding protein (from UniProt P0AGE0 2-178) | – | – | – | – | – | – | – | – | – | – | – | – | – | – | SSB-stimulated ExoI nuclease activity [7]: < 2 fold; ExoI nuclease activity on radiolabeled ssDNA, stimulation by SSB [8]: 4 fold
6 | CC(C)(C)C1=NN(c2nc3ccc(Cl)cc3s2)C(=O)C1 [Compound 9, 3-(tert-butyl)-1-(6-chloro-1,3-benzothiazol-2-yl)-4,5-dihydro-1H-pyrazol-5-one] | 6.2 (≈ 20.1 µM) | > 100 | 38 | 6 | 6 | 6 | 0.8 | 2.2 | ~0.773 | 9 (≈ 29.2 µM) | 6 | 6 | 5.5 | >800 | growth on agar plates (B. subtilis): inhibited; growth on agar plates (Enterococcus faecalis): inhibited; growth on agar plates (Deinococcus radiodurans): inhibited; % hemolysis at given concentration (red blood cells; >800 μM): 0% >800
7 | COc1ccc(Nc2cc(C(F)(F)F)ccc2Cl)c(C(=O)O)c1 [Compound 10, 2-[2-chloro-5-(trifluoromethyl)anilino]-5-methoxybenzoic acid] | 11.1 (≈ 32.1 µM) | > 100 | 60 | 30 | 30 | 30 | 0.1 | 0.35 | ~0.125 | 12.3 (≈ 35.6 µM) | 20 | 20 | 18 | ~800 | growth on agar plates (B. subtilis): inhibited; growth on agar plates (Enterococcus faecalis): inhibited; inhibition of fluorescent peptide binding to TopoIII (anisotropy) [6]: inhibit binding; growth on agar plates (Deinococcus radiodurans): inhibited; % hemolysis at given concentration (red blood cells; 400 μM): 0% 400; % hemolysis at given concentration (red blood cells; 800 μM): 85% at 800 μM
8 | WMDFDDDIPF (also called unlabeled peptide; SSB-Ct peptide) [WT peptide (WMDFDDDIPF, without a fluorescent moiety)] | – | – | – | – | – | – | – | – | – | – | – | – | – | – | Ki (E. coli Exonuclease I): 0.053 µM
